How the values were obtained:
Assay type in all cases: cell-based
[1] = target: T1, 17β-hydroxysteroid dehydrogenase type 2 (Homo sapiens, UniProt P37059); experiment: Inhibition of 17β-HSD type 2 in MCF-7 cells stably expressing the isoenzyme (HPLC, tritium labeled estradiol); details: 2 nM estradiol, read-out: % Inhibition of the 17β-HSD enzyme type 2 (HSD2); for inhibition at 1 µM: MCF7, 1 μM compound; for inhibition at 10 µM: MCF7, 10 μM compound
T1 construct: expressed in transfected cells; host or cells: MCF-7
T1 sequence (P37059 1-387): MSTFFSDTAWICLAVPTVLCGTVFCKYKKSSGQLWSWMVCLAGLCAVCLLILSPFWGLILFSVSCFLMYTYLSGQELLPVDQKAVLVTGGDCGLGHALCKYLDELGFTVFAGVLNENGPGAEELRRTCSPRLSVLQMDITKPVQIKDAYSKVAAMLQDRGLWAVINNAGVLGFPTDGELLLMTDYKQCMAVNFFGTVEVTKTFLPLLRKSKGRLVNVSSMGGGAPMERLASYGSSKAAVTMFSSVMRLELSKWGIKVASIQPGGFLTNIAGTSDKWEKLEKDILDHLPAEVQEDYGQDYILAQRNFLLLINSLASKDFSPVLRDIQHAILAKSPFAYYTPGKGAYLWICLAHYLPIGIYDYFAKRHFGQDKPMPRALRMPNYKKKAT
From the text: (§1) Biological Testing Materials and Methods 1. Inhibition of the 17β-hydroxysteroid dehydrogenase type 1, type 2 and type 3 enzyme
(§2) The compounds were screened in respect of 17β-HSD enzyme activity in vitro on established M CF-7 cell lines, each stably expressing one of the respective 17β-HSD isoenzymes. The interconversion of substrate by each isoenzyme and the 17β-HSD inhibiting activity of chemical compounds in these cell lines were detected by HPLC system.
(§3) Varying amounts of the test compounds were incubated in the growth medium of the 17β-HSD expressing cells together tritium labeled substrate (2 nM estrone for 17β-HSD type 1; 2 nM estradiol for 17β-HSD type 2; and 2 nM androstenedione for 17β-HSD type 3). The medium samples were removed after exact incubation time and the reaction is stopped by trichloroacetic acid (TCA). The samples were analyzed by HPLC-coupled flow scintillation analysis.
(§4) For each enzyme type, the HSD-inhibiting activity of an individual test compound was calculated by comparing the conversion of a control sample without any test compound (referred to as “Negative Control”) to the (reduced) conversion of the test sample containing the particular compound to be tested (referred to as “Test Sample”).
(§5) Two concentrations of each compound were used. The number of the compound refers to the numbers indicated in the Experimental Section.

[2] = target: T2, 17β-hydroxysteroid dehydrogenase type 1 (Homo sapiens, UniProt P14061); experiment: Inhibition of 17β-HSD type 1 in MCF-7 cells stably expressing the isoenzyme (HPLC, tritium labeled estrone); details: 2 nM estrone; for inhibition at 1 µM: MCF7, 1 μM compound; for inhibition at 1 µM / inhibition at 10 µM: read-out: % Inhibition of the 17β-HSD enzyme type 1 (HSD1); for inhibition at 10 µM: MCF7, 10 μM compound
T2 construct: expressed in transfected cells; host or cells: MCF-7
T2 sequence (P14061 1-328): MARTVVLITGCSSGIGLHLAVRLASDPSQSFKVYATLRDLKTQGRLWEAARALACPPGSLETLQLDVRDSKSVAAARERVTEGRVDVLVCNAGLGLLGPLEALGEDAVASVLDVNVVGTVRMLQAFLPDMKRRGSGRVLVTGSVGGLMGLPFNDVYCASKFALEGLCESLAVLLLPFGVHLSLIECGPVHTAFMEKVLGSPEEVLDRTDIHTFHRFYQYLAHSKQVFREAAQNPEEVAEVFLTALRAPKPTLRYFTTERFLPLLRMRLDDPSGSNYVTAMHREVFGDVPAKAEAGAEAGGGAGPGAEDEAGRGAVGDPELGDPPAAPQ
From the text: as §1, §2, §3, §4, §5

[3] = target: T3, 17β-hydroxysteroid dehydrogenase type 3 (Homo sapiens, UniProt P37058); experiment: Inhibition of 17β-HSD type 3 in MCF-7 cells stably expressing the isoenzyme (HPLC, tritium labeled androstenedione); details: 2 nM androstenedione; for inhibition at 1 µM: MCF7, 1 μM compound; for inhibition at 1 µM / inhibition at 10 µM: read-out: % Inhibition of the 17β-HSD enzyme type 3 (HSD3); for inhibition at 10 µM: MCF7, 10 μM compound
T3 construct: expressed in transfected cells; host or cells: MCF-7
T3 sequence (P37058 1-310): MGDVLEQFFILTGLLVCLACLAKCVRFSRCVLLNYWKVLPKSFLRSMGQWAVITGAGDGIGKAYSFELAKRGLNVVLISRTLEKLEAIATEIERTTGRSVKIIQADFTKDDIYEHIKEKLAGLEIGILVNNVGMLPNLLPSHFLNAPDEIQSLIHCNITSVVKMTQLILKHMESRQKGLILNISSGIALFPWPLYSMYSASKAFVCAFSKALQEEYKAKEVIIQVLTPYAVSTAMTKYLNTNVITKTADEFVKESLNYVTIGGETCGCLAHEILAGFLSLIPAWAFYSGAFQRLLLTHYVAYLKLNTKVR
From the text: as §1, §2, §3, §4, §5

| SMILES | inhibition at 1 µM [1] | inhibition at 10 µM [1] | inhibition at 1 µM [2] | inhibition at 10 µM [2] | inhibition at 1 µM [3] | inhibition at 10 µM [3] | % Inhibition of the 17β-HSD enzyme type 1 (HSD1) ([2]; 1 μM compound) | % Inhibition of the 17β-HSD enzyme type 1 (HSD1) ([2]; 10 μM compound) | % Inhibition of the 17β-HSD enzyme type 3 (HSD3) ([3]; 1 μM compound) | % Inhibition of the 17β-HSD enzyme type 3 (HSD3) ([3]; 10 μM compound) |
| --- | --- | --- | --- | --- | --- | --- | --- | --- | --- | --- |
| O=CC1=C(Cl)c2sc3nc4n(c(=O)c3c2CC1)CCCCCC4C=O (stereo not shown) [Compound 11, 4-Chloro-1,2,7,9, 10,11,12,14-octahydro-14-oxo-8H-[1]benzothieno[2′,3′:4,5]pyrimido-[1,2-a]-azocine-3,7-dicarbaldehyde] | 16.7% | 28.3% | 4.7% | 51.1% | 7.3% | 31.7% |  |  |  |  |
| CCCSC1=C(C=O)CCc2c1sc1nc3n(c(=O)c21)CCCCCC3 [Compound 5i, 1,2,7,9,10,11,12,14-octahydro-14-oxo-4-(propylthio)-8H-[1]benzothieno[2′,3′:4,5]pyrimido-[1,2-a]-azocine-3-carbaldehyde] | 11.6% | 17.3% | 43.9% | 100% | 22.5% | 80.5% |  |  |  |  |
| CCCSC1=C(C=O)CCc2c1sc1nc3n(c(=O)c21)CCCCC3 [Compound 5c, 1,2,7,8,9,10,11,13-Octahydro-13-oxo-4-(propylthio)[1]benzothieno[2′,3′:4,5]-pyrimido-[1,2-a]azepine-3-carboxaldehyde] | 8.9% | 18.6% | 74% | 100% | 10.5% | 100% |  |  |  |  |
| CC(C)SC1=C(C=O)CCc2c1sc1nc3n(c(=O)c21)CCCCC3 [Compound 5e, 1,2,7,8,9,10,11,13-Octahydro-13-oxo-4-(isopropylthio)[1]benzothieno[2′,3′:4,5]-pyrimido-[1,2-a]azepine-3-carboxaldehyde] | 8.4% | 20.2% | 71.9% | 100% | 50.8% | 86.3% |  |  |  |  |
| Cn1cnc2sc3c(c2c1=O)CCC(C=O)=C3Cl [Compound 4e, 8-Chloro-5,6-dihydro-3-methyl[1]benzothieno[2,3-d]pyrimidin-4(3H)-one-7-carboxyaldehyde] | 9.6% | 28.3% | 23.5% | 44.4% | 9.8% | 14.2% | 24.6% | 52.1% | 11.1% | 17.3% |
| O=c1c2c3c(sc2nc2n1CCCCC2)CCCCC3 [Compound 2c, 1,2,3,4,5,8,9,10,11,12-Decahydro-14H-cyclohepta[4′,5′]thieno[2′,3′:4,5]pyrimido-[1,2-a]azepin-14-one] | 8.9% | 13.5% | 22.7% | 39.8% | 50.8% | 47% |  |  |  |  |
| O=c1c2c3c(sc2nc2n1CCCCCC2)C(O)CCC3 (stereo not shown) [Compound 13, 1,2,3,4,7,8,9,10,11,12-Decahydro-4-hydroxy-14H-[1]benzothieno[2′,3′:4,5]pyrimido[1,2-a]azocin-14-one] | 1.7% | 18.6% | 5% | 20% | -2.2% | 11.7% |  |  |  |  |
| O=c1c2c3c(sc2nc2n1CCC(CO)CC2)CCCC3 (stereo not shown) [Compound 35, 9-(Hydroxymethyl)-2,3,4,7,8,9,10,11-octahydro-[1]benzothieno[2′,3′: 4,5]pyrimido[1,2-a]azepin-13(1H)-one] | 15.8% | 27.7% | 4.8% | 22.4% | 16.2% | 23.4% |  |  |  |  |
| CCCSC1=C(C=O)CCc2c1sc1nc3n(c(=O)c21)CCC(C(=O)OC)CC3 (stereo not shown) [Compound 23, 3-Formyl-1,2,7,8,9,10,11,13-octahydro-13-oxo-4-(propylthio)-[l]benzothieno[2′,3′: 4,5] pyrimido[1,2-a]azepine-9-carboxylic acid methyl ester] | 9.7% | 17.7% | 17.4% | 64.7% | 19.5% | 89.5% |  |  |  |  |
| CC1CCc2nc3sc4c(c3c(=O)n2CC1)CCCC4=O (stereo not shown) [Compound 17, 2,3,8,9,10,11-Hexahydro-9-methyl-[1]benzothieno[2′,3′: 4,5]pyrimido[1,2-a]azepine-4,13(1H,7H)-dione] | 15.2% | 20.1% | 18.4% | 39.4% | 21.6% | 32.4% |  |  |  |  |
| CCOC(=O)C1CCCn2c1nc1sc3c(c1c2=O)CCCC3 (stereo not shown) [Compound 15, 1,2,3,4,7,9,10,12-Octahydro-12-oxo-8H-[1]benzothieno[2,3-d]pyrido[1,2-a]pyrimidine-7-carboxylic acid ethyl ester] | 10.7% | 15.7% | 14.8% | 24.5% | -0.3% | 13.5% |  |  |  |  |
| O=C(O)C1=C(Cl)c2sc3nc4n(c(=O)c3c2CC1)CCCCC4 [Compound 31, 4-Chloro-1,2,7,8,9, 10,11,13-octahydro-13-oxo-[1]benzothieno[2′,3′: 4,5]pyrimido[1,2-a]azepine-3-carboxylic acid] | -0.2% | 9.3% | 2.1% | 6.8% | -6.4% | -3.9% |  |  |  |  |
| CCOC(=O)C1CCCn2c1nc1sc3c(c1c2=O)CCCC3=O (stereo not shown) [Compound 18, 4,12-Dioxo-1,2,3,4,7,9,10,12-octahydro-8H-[1]benzothieno[2,3-d]pyrido[1,2-a]pyrimidine-7-carboxylic acid ethyl ester] | 18.7% | 23.8% | 0.5% | 9.5% | -3% | 21.3% |  |  |  |  |
| CCCSC1=C(C=O)CCc2c1sc1nc3n(c(=O)c21)CCC(C)CC3 (stereo not shown) [Compound 34, 9-Methyl-1,2,7,8,9,10,11,13-octahydro-13-oxo-4-(propylthio)-[1]benzothieno[2′,3′: 4,5]-pyrimido[1,2-a]azepine-3-carbaldehyde] | 13% | -0.5% | 14.9% | 48.1% |  |  |  |  |  |  |
| CC1CCc2c(sc3nc4n(c(=O)c23)CCCCC4)C1O (stereo not shown) [Compound 32, 4-Hydroxy-3-methyl-2,3,4,7,8,9,10,1-octahydro [1]benzothieno[2′,3′: 4,5]pyrimido-[1,2-a]azepin-13(1H)-one] | 14% | -5.1% | 19.7% | 22.5% |  |  |  |  |  |  |
| CCCSC1=C(C=O)CCc2c1sc1nc3n(c(=O)c21)CCC(C(=O)O)CC3 (stereo not shown) [Compound 33, 3-Formyl-1,2,7,8,9,10,11,13-octahydro-13-oxo-4-(propylthio)-[1]benzothieno[2′,3′: 4,5] pyrimido[1,2-a]azepine-9-carboxylic acid] | 5% | -0.1% | 15.3% | 22.6% |  |  |  |  |  |  |

— US7754709B2 (Solvay Pharmaceuticals BV, priority 2003, dated 2010)
